# Measured values as given in patent US20180368393A1, “PRE- AND POST-STORAGE STRESS RESPONSE CONDITIONING” (CPSI HOLDINGS LLC, priority 2017, published 2018).
# Tested on: human endothelial cells
# Test: Human endothelial cell monolayer survival and repopulation following cryopreservation (Calcein-AM assay)
# Assay type: cell-based
# Description: A series of cryopreservation experiments was conducted on human endothelial and smooth muscle cell suspensions and monolayers to assess the performance of four (4) commercially available cryopreservation solutions: DP6, VS55, VS83, and M22, as well as nine (9) additional solutions: […] Eurocollins (EC) solution was included as a negative control, i.e., no cryoprotective agent (CPA) control, while media+10% DMSO ([…]) is a typical solution (10% DMSO) used in standard controlled rate cryopreservation protocols known to the skilled individual. Unisol is representative of the class of intracellular-like or intracellular-type solutions/media, whereas EC solution and culture media are representative of the class of extracellular-like or extracellular-type solutions/media. Other studies presented herein provide additional examples of intracellular- and extracellular-like solutions; other intracellular- and extracellular-like solutions are similarly useful and are known to those of skill in the art. FIG. 1 illustrates the results of an assessment of human endothelial cell survival following preservation. Monolayers of endothelial cells were frozen or vitrified and thawed in the indicated solutions (control, Uni, […], DP6, VS55, VS83, and […]). Following thawing, samples were diluted in culture media, placed into culture and assessed for viability at 1 day (24 hours) post-thaw and following seven (7) days of recovery using the Calcein-AM assay. […] The Uni and U10 conditions provided outcomes exceeding that of the VS55, VS83 and […] conditions. Therefore, subsequent studies (see, e.g., FIG. 2) focused on Unisol-based solutions with various CPAs and concentrations, in addition to the DP6 commercial cryopreservation solution. […] Monolayers of endothelial cells were frozen or vitrified and thawed in the indicated solutions. […] For pre-freeze (PF), post-warming (PW) and pre/post (P/P) conditioning studies, molecular modulation agents targeting inhibition of apoptosis (Caspase inhibitor IV, 8, 9 and a combination of Caspases 8 and 9), reduction of free-radical damage (resveratrol and NAC), and activation of the unfolded protein response (salubrinal) were employed as supplements in the media 1 hour prior to freezing (pre-freeze condition) or for 1 day following thawing and CPA removal from frozen samples (post-warming condition). Based on outcomes in the studies in Example 1, PF, PW and P/P conditioning were examined in Examples 2-3 using a series of Unisol-based solutions (Uni, U5, U10, U20, UG10, U5G10 and U10G10). […] Patent Application Publication No. US 2016/0097583 A1 (Ser. No. 14/876,087), which is incorporated by reference in its entirety as though fully set forth herein. The freeze and thaw process was slightly modified relative to the disclosure of U.S. Patent Application Publication No. US 2016/0097583 A1 by the addition of a 0.090 inch aluminum plate inserted into the bottom of the 96 well plate to aid in increasing cooling and heating uniformity throughout the plate, thereby reducing the well-to-well variability within the samples. The device was used to thaw the samples, which were frozen in situ in monolayers in standard 96-well tissue culture plates. […] A mitochondrial-mediated apoptotic inhibitor (Caspase 9) and a membrane-mediated apoptotic inhibitor (Caspase 8) were investigated to evaluate the involvement and impact of modulation of various apoptotic induction pathways. Additionally, a pan-Caspase inhibitor (Cas IV) was also investigated to assess the impact of global pathway modulation. As with the viability studies, cell survival and repopulation were assessed using Calcein-AM assays and analyzed using fluorescent microscopy (Zeiss). Survival was determined at 24 hours post-thaw to allow for the manifestation of any delayed onset cell death pathways to be executed. Further, cell recovery was included to evaluate the long term potency and repopulation potential of the various samples. […]
structure (smiles),measurement,setting,value
"CC(=O)N[C@@H](CS)C(=O)O [NAC, n-acetyl cysteine]",survival,"P/P conditioning with NAC, salubrinal or resveratrol, U10G10",~60%
same,post-thaw viability,"P/P conditioning, U10 and U5G10 CP solutions vs matched non-treated samples",increase in post-thaw viability
same,day 1 survival increase over non-treated samples,"P/P oxidative stress modulator conditioning, U10G10",~2.5 fold
same,day 1 survival increase over non-treated samples,"PF conditioning 1 hour, U10G10",~2 fold
same,day 1 survival increase over non-treated samples,"PW conditioning 24 hours, U10G10",~2 fold
same,post-thaw cell survival or recovery (overall),PW conditioning in combination with various solutions,Broader solution benefit
same,"cell recovery / repopulation, 3 days","PW conditioning with oxidative stress modulators, vs non-treated",improved cell recovery
same,increase in survival,"PW conditioning, U10 and U10G10 solutions, day 1",~50%
